Data published in US20240207157A1, “ORAL CARE AGENT” (priority 2021, published 2024).

Experiments:
[1] = test system: GM-CSF; experiment: Q-PCR, GM-CSF experiments in HaCaT cells; assay type: cell-based, human; conditions: all tested caffeine concentrations, 24 h, Experiments 1 and 2
Protocol: (§1) For Q-PCR: Determination of VEGF, HGF and EGF mRNA expression in cell lysates • 2. For ELISA: Determination of VEGF, HGF and EGF protein synthesis/secretion into the culture medium
(§2) The initial cell count was • 1. for Q-PCR: 140,000 cells/well in 1500 μl culture medium • 2. for ELISA: 140,000 cells/well in 1.500 μl culture medium.
(§3) The trial duration for • 1. Q-PCR was 24 hours (single treatment at time 0 h) • 2. ELISA was 48 hours (double treatment at time 0 h and 24 h without changing the medium).

[2] = test system: TGFβ1; experiment: Q-PCR, TGFβ1 mRNA expression in HaCaT cells; assay type: cell-based, human
[3] = test system: human epidermal HaCaT keratinocytes; experiment: colorimetric MTT viability study on HaCaT keratinocytes
Protocol: To investigate the effect of caffeine on the biological functions of human epidermal HaCaT keratinocytes, cell experiments were performed on human epidermal HaCaT keratinocytes, wherein the following studies were carried out: • 1.
The initial cell count was 5000 cells/well in 100 μl culture medium.
The culture medium was HaCaT medium (DMEM with the addition of 10% FBS, 1% penicillin-streptomycin, 0.5% fungizone).
The treatment groups were as follows: • 1. Control group (CTRL) • 2. 0.00005% caffeine • 3. 0.0001% caffeine • 4. 0.0005% caffeine • 5. 0.001% caffeine • 6. 0.005% caffeine
The trial durations were 24, 48 and 72 hours.
The study took the form of a colorimetric MTT study.

[4] = test system: GM-CSF; experiment: ELISA, GM-CSF experiments in HaCaT cells; assay type: cell-based, human; conditions: 48 h
Protocol: as §1, §2, §3

[5] = test system: human epidermal HaCaT keratinocytes; experiment: fluorometric CyQUANT cell proliferation study (DNA content); assay type: cell-based; conditions: 0.00005, 0.0005, 0.005% caffeine; 24, 48 or 72 hours; best effects after 72 hours
Protocol: To investigate the effect of caffeine on cell proliferation of human epidermal HaCaT keratinocytes, human HaCaT keratinocytes were subjected to a CyQUANT viability assay, wherein the following series of experiments were performed: • 1. P22 Experiment 1 (biological assay 1) • 2. P24 Experiment 2 (biological assay 2).
The trial durations were 24, 48 or 72 hours.
The study was carried out by fluorometric CyQUANT study, wherein the DNA content was measured, reflecting cell proliferation.

[6] = test system: TGFβ2; experiment: Q-PCR, TGFβ2 mRNA expression in HaCaT cells; assay type: cell-based, human
[7] = humans, after drinking four cups of coffee; cited from earlier work
[8] = test system: VEGF; experiment: Q-PCR, VEGF mRNA expression in HaCaT cell lysates; assay type: cell-based, human
Protocol: as §1, §2, §3
(§4) The study was carried out • 1. for Q-PCR by determining VEGF mRNA expression in cell lysates • 2. for ELISA by determining VEGF protein synthesis/secretion in the culture medium.

[9] = test system: VEGF; experiment: ELISA, VEGF protein synthesis/secretion into the culture medium of HaCaT cells; assay type: cell-based, human; conditions: 48 hours
Protocol: as §1, §2, §3, §4

[10] = 0.0005% caffeine, both experiments

Compound: Cn1c(=O)c2c(ncn2C)n(C)c1=O [caffeine]
- mRNA expression of VEGF compared to the control group (experiments regarding GM-CSF) [1]: apparently increased the mRNA expression of VEGF
- mRNA expression of TGFβ1 ([2]; all tested caffeine concentrations, 24 h, Experiments 1 and 2): None of the tested caffeine concentrations changed the mRNA expression of TGFβ1
- synthesis/production/secretion of TGFβ1 ([2]; taken together, Q-PCR and ELISA): does not alter
- cytotoxicity ([3]; 0.00005-0.005% caffeine, up to 72 hours): none of the concentrations tested showed cytotoxicity
- number of viable cells ([3]; certain concentrations of caffeine, MTT): increased the number of viable cells
- VEGF protein production/secretion compared to the control group (experiments regarding GM-CSF) ([4]; 0j.005% caffeine, Experiment 2): also showed an effect
- VEGF protein production/secretion compared to the control group (experiments regarding GM-CSF) [4, 10]: increased VEGF protein production/secretion
- cell proliferation [5]: appears to promote cell proliferation
- mRNA expression of TGFβ2 ([6]; certain caffeine concentrations, 24 h, Experiment 2): apparently increase mRNA expression of TGFβ2
- synthesis/production/secretion of TGFβ2 ([6]; taken together, contradictory results in the two Q-PCR experiments): most likely does not alter
- caffeine concentration in the blood serum [7]: 20 to 50 µmol/L
- total amount corresponding to the serum concentration [7]: 15-35 milligrams
- mRNA expression of VEGF compared to the control group ([8]; all caffeine concentrations, 24 hours treatment, Experiments 1 and 2): appear to increase mRNA expression of VEGF
- synthesis and production/secretion of VEGF ([8]; certain concentrations of caffeine, Q-PCR and ELISA taken together): increase the synthesis and production/secretion of VEGF
- VEGF protein production/secretion compared to the control group [9, 10]: increases VEGF protein production/secretion
- VEGF protein production/secretion compared to the control group ([9]; 0.005% caffeine, Experiment 2): also showed an effect
